In patent US12239651B2, “Treatment of hearing loss” (Massachusetts Eye and Ear Infirmary, priority 2018, dated 2025):
“Also recorded” adds a separate entry of the source.

Assays:
[1] = system: adult rtTA/tet-NICD cochlea; assay: Proliferation and HC regeneration in Dox-treated adult rtTA/tet-NICD cochlea culture with ad-Atoh1; assay type: cell-based, mouse; settings: for EdU+ (proliferating) cells: Dox (NICD activation) plus MHY1485, ad-Atoh1, vs Dox alone/DMSO controls, SE and Lib; for HC regeneration by ad-Atoh1 (new HCs, MYO7A+/PVALB+): Dox (NICD activation) plus MHY1485 and ad-Atoh1 vs Dox and ad-Atoh1 without MHY1485
Description: (§1) Survival was studied by analysis of apoptosis.
The prominent roles in proliferation and cell growth by mTOR provided evidence that it may compensate for part of the MYC functions. To determine if mTOR activation is sufficient to replace MYC to induce proliferation in adult cochlea, mTOR was activated in Dox-treated rtTA/tet-NICD adult cochlea culture by MHY1485, a small molecule mTOR activator^8 (FIG. 1K).
(§2) To evaluate if mTOR is sufficient to induce proliferation, wildtype adult mouse cochlea were cultured and treated with MYH1485 to activate mTOR pathway followed by ad-Atoh1 infection for hair cell regeneration. […] Thus activation of mTOR by MHY1485 is sufficient to induce proliferation in adult/mature cochlea and it improves hair cell regeneration efficiency mediated by Atoh1.

[2] = system: wildtype adult mouse cochlea; assay: Proliferation and hair cell regeneration in cultured adult wildtype cochlea with ad-Atoh1; assay type: cell-based; settings: wildtype adult cochlea culture, ad-Atoh1 infection 14 days, MHY1485 treated vs ad-Atoh1 only
Description: as §1, §2

[3] = system: adult rtTA/tet-MYC/tet-NICD cochlea; settings: 6 days Dox with vs without rapamycin, in vitro; SE and Lib regions
Description: SOX2 labeled SCs. […] Arrows pointed to SOX2^+/EdU^+/p-rpS6^+ cells. […] Error bar, mean±SEM; n=5. […] Error bar, mean±SEM; n=5. (FIG. 1K) A diagram illustrating the study of the effect of mTOR activator MHY1485 on proliferation and HC regeneration. […] (FIGS. 1N-1O) Quantification of EdU^+ cells, MYO7A^+ HCs and ectopic HCs in 1-m″. *p<0.05, Student's t-test. Error bar, mean±SEM; n=5.
Whole cochlea explant organ culture and microinjection into adult cochlea were used for the study in vitro and in vivo, respectively. NOTCH1 and c-MYC were activated in adult wild type mice by virus-mediated delivery, or in adult doxycycline-inducible rtTA/tet-MYC/tet-NICD transgenic mice through supplement of doxycycline in vitro and in vivo. EdU and BrdU incorporation was used to study proliferation. Lineage tracing using Sox2-promoter-driven Cre mice (Sox2-CreER) crossed with the tdTomato (tdT) reporter mice was conducted to identify the origin of proliferating cells. The mechanisms underlying reprograming were studied by qRT-PCR, immunolabeling and the effectors that modulate mTOR pathway. Survival was studied by analysis of apoptosis.
It was hypothesized that the reprogramming effect in adult cochlea by MYC/NICD may be mediated in part by the mTOR pathway.

O=[N+]([O-])c1ccc(Nc2nc(N3CCOCC3)nc(N3CCOCC3)n2)cc1 [MHY1485]
EdU+ (proliferating) cells [1]: observed in the sensory epithelium and the limbus regions; also recorded: most proliferating cells; also recorded: Significantly more
EdU+ (proliferating) cells ([1]; listed as MHY 1485): most proliferating cells
HC regeneration by ad-Atoh1 (new HCs, MYO7A+/PVALB+) [1]: most regenerated hair cells; also recorded: Significantly more
HC regeneration by ad-Atoh1 (new HCs, MYO7A+/PVALB+) ([1]; listed as MHY 1485): most proliferating cells and hair cells
HC regeneration by ad-Atoh1 (new HCs, MYO7A+/PVALB+) ([1]; listed as MYH1485): more HC regeneration
number of EdU+ cells compared with Myc/NICD co-activation ([1]; NICD activation and MHY1485 treatment vs Myc/NICD co-activation): fewer
EdU labeled (proliferating) cochlear cells [2]: numerous proliferating cells
hair cell regeneration (PVALB+/MYO7a+) [2]: More hair cells were regenerated; also recorded: enhanced hair cell regeneration
EdU labeled (proliferating) cochlear cells ([2]; listed as MHY 1485): Abundant EdU labeled cochlear cells

COc1ccc(C[C@H](N)C(=O)N[C@H]2[C@@H](O)[C@H](n3cnc4c(N(C)C)ncnc43)O[C@@H]2CO)cc1 [puromycin]
number of EdU+ cells induced by Myc/NICD co-activation [3]: suppresses proliferation
